Measurements as given in patent publication US12655106B2 (Eikonizo Therapeutics, Inc., priority 2021, dated 2026).

Legend:
Full length Human HDAC8 = molecular target: T1, Full length Human HDAC8 (Homo sapiens, UniProt Q9BY41); assay: Caliper endpoint assay for HDAC enzymatic activity (HDAC8); assay type: biochemical; conditions: in vitro enzymatic, 30 min pre-incubation, 1 μM substrate peptide
T1 construct: Full length Human HDAC8; HIS (N); host or cells: baculovirus expression system
T1 sequence (Q9BY41 1-377): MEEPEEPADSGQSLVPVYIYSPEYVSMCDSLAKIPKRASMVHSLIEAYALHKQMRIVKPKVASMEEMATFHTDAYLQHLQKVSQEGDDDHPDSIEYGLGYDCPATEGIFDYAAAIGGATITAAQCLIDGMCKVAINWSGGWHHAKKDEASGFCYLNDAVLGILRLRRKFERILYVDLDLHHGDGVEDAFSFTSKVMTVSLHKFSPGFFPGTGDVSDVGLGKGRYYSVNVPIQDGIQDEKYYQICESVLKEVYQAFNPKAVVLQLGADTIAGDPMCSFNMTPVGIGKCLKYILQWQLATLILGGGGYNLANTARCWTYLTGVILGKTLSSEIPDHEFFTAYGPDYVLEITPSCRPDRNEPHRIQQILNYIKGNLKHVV

Full length Human HDAC6 = molecular target: T2, Full length Human HDAC6 (Homo sapiens, UniProt Q9UBN7); assay: Caliper endpoint assay for HDAC enzymatic activity (HDAC6); assay type: biochemical; conditions: for IC50: in vitro enzymatic, Caliper endpoint assay, 30 min pre-incubation, 1 μM substrate peptide
T2 construct: Full length Human HDAC6; FLAG (C); host or cells: baculovirus expression system
T2 sequence (Q9UBN7 1-1215): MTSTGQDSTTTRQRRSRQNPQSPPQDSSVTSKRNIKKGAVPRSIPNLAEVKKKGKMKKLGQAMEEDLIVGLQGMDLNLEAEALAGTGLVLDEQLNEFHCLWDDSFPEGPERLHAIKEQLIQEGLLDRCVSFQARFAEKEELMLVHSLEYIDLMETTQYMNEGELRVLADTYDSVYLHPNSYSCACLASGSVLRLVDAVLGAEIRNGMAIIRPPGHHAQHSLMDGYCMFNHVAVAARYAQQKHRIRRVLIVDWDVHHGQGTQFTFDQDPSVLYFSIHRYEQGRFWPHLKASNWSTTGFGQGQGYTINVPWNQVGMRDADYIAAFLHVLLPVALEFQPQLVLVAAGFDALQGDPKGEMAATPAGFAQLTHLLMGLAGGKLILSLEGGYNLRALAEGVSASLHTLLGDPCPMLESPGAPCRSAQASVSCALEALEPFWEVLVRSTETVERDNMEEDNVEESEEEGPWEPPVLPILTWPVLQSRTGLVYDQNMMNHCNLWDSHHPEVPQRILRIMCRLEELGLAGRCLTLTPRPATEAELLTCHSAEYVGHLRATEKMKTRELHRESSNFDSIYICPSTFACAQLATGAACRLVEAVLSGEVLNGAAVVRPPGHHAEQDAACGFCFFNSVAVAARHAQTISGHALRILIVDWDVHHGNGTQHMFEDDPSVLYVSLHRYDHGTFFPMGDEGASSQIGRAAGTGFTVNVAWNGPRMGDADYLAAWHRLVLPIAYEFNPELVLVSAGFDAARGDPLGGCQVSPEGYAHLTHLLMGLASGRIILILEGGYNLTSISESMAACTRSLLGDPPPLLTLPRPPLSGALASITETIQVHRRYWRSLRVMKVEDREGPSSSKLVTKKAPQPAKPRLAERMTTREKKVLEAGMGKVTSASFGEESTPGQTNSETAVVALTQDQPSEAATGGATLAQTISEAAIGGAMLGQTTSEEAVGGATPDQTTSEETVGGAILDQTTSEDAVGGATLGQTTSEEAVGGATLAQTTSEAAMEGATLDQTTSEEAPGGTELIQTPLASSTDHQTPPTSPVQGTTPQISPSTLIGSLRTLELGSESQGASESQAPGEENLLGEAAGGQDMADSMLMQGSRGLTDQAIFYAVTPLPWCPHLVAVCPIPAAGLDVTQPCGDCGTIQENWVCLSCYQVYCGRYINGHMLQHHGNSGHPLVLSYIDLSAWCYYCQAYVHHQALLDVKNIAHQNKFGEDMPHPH

| Structure (SMILES) | IC50 (Full length Human HDAC8) [nM] | IC50 (Full length Human HDAC6) [nM] | Selectivity (6 v 8) (Full length Human HDAC6; ratio of HDAC8 IC50/HDAC6 IC50) |
| --- | --- | --- | --- |
| CC[C@@H]1Cc2c(F)cc(C(=O)NO)cc2CN1C[C@H]1CCCCO1 (single isomer, unassigned) [Compound 230] | 1000 to 10000 | 1 to 100 | III (III: >10-100) |
| CC[C@H]1N(Cc2ccc(C(=O)NO)cc2F)CC12CCCC2 [Compound 169] | 1000 to 10000 | 1 to 100 | – |
| CC[C@H](c1ccccc1)N1CCc2cc(C(=O)NO)cc(F)c2C1 [Compound 30] | 1000 to 10000 | 1 to 100 | – |
